Legend:
Caco-2 cell line = test: Cytotoxicity MTS assay, Caco-2 cell line; type: cell-based; conditions: for OD490 Mean / OD490 Well 1 / OD490 Well 2 / OD490 Well 3: Caco-2 cell line
Method in brief: (§1)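 Growth inhibition is measured by MTS conversion, read as absorbance at 490 nm after 2 h at 37 °C. Compounds act on cells seeded at 1000/well for 24 h across 0.5–100 µM final. Data derive from three independent duplicate experiments.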

T24 cell line = test: Cytotoxicity MTS assay, T24 cell line; type: cell-based; conditions: for OD490 Mean / OD490 Well 1 / OD490 Well 2 / OD490 Well 3: T24 cell line, first assay;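 for OD490 Mean: blank control wells received 0.025% DMSO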;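 for OD490 Well 1: blank control wells received 0.025% DMSO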;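 for OD490 Well 2: blank control wells received 0.025% DMSO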;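 for OD490 Well 3: blank control wells received 0.025% DMSO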
Method in brief: as §1

## CCOC(=O)c1[nH]c(C2NC(=S)NC(C)=C2C(=O)OC)c(C(=O)OCC)c1C (centres unmarked) [D12]
Caco-2 cell line; 0.5μM, first assay
  OD490 Mean: 0.5030
  OD490 Well 1: 0.4995
  OD490 Well 2: 0.5121
  OD490 Well 3: 0.4973
Caco-2 cell line; 0.5μM, second assay
  OD490 Mean: 0.6834
  OD490 Well 1: 0.5732
  OD490 Well 2: 0.7838
  OD490 Well 3: 0.6933
Caco-2 cell line; 0.5μM, third assay
  OD490 Mean: 0.6157
  OD490 Well 1: 0.6017
  OD490 Well 2: 0.6354
  OD490 Well 3: 0.6100
Caco-2 cell line; 1μM, first assay
  OD490 Mean: 0.4963
  OD490 Well 1: 0.4703
  OD490 Well 2: 0.5352
  OD490 Well 3: 0.4835
Caco-2 cell line; 1μM, second assay
  OD490 Mean: 0.6457
  OD490 Well 1: 0.5559
  OD490 Well 2: 0.7221
  OD490 Well 3: 0.6591
Caco-2 cell line; 1μM, third assay
  OD490 Mean: 0.6229
  OD490 Well 1: 0.6178
  OD490 Well 2: 0.6489
  OD490 Well 3: 0.6021
Caco-2 cell line; 10μM, first assay
  OD490 Mean: 0.5326
  OD490 Well 1: 0.5238
  OD490 Well 2: 0.5488
  OD490 Well 3: 0.5251
Caco-2 cell line; 10μM, second assay
  OD490 Mean: 0.6099
  OD490 Well 1: 0.585
  OD490 Well 2: 0.6539
  OD490 Well 3: 0.5909
Caco-2 cell line; 10μM, third assay
  OD490 Mean: 0.6194
  OD490 Well 1: 0.6123
  OD490 Well 2: 0.6244
  OD490 Well 3: 0.6214
Caco-2 cell line; 25μM, first assay
  OD490 Mean: 0.5279
  OD490 Well 1: 0.5868
  OD490 Well 2: 0.5324
  OD490 Well 3: 0.4646
Caco-2 cell line; 25μM, second assay
  OD490 Mean: 0.5376
  OD490 Well 1: 0.5247
  OD490 Well 2: 0.5145
  OD490 Well 3: 0.5736
Caco-2 cell line; 25μM, third assay
  OD490 Mean: 0.5839
  OD490 Well 1: 0.5863
  OD490 Well 2: 0.5944
  OD490 Well 3: 0.5711
Caco-2 cell line; 50μM, first assay
  OD490 Mean: 0.5705
  OD490 Well 1: 0.5776
  OD490 Well 2: 0.5840
  OD490 Well 3: 0.5499
Caco-2 cell line; 50μM, second assay
  OD490 Mean: 0.6141
  OD490 Well 1: 0.6452
  OD490 Well 2: 0.6668
  OD490 Well 3: 0.5302
Caco-2 cell line; 50μM, third assay
  OD490 Mean: 0.5882
  OD490 Well 1: 0.5933
  OD490 Well 2: 0.5725
  OD490 Well 3: 0.5988
Caco-2 cell line; 100μM, first assay
  OD490 Mean: 0.4236
  OD490 Well 1: 0.4210
  OD490 Well 2: 0.4345
  OD490 Well 3: 0.4153
Caco-2 cell line; 100μM, second assay
  OD490 Mean: 0.5967
  OD490 Well 1: 0.5668
  OD490 Well 2: 0.6735
  OD490 Well 3: 0.5498
Caco-2 cell line; 100μM, third assay
  OD490 Mean: 0.4730
  OD490 Well 1: 0.4925
  OD490 Well 2: 0.4687
  OD490 Well 3: 0.4578
Caco-2 cell line; MTS assay, 24 h exposure
  IC50: 148 µM
T24 cell line; MTS assay, 24 h exposure
  IC50: > 150 µM
T24 cell line; 0.5μM
  OD490 Mean: 1.1142
  OD490 Well 1: 1.0855
  OD490 Well 2: 0.8354
  OD490 Well 3: 1.4216
T24 cell line; 1μM
  OD490 Mean: 1.1490
  OD490 Well 1: 1.1324
  OD490 Well 2: 1.1847
  OD490 Well 3: 1.1298
T24 cell line; 10μM
  OD490 Mean: 1.2900
  OD490 Well 1: 1.3295
  OD490 Well 2: 1.2196
  OD490 Well 3: 1.3210
T24 cell line; 25μM
  OD490 Mean: 1.3787
  OD490 Well 1: 1.3758
  OD490 Well 2: 1.4030
  OD490 Well 3: 1.3572
T24 cell line; 50μM
  OD490 Mean: 1.3058
  OD490 Well 1: 1.3832
  OD490 Well 2: 1.3204
  OD490 Well 3: 1.2137
T24 cell line; 100μM
  OD490 Mean: 1.2394
  OD490 Well 1: 1.3664
  OD490 Well 2: 1.1849
  OD490 Well 3: 1.1670

Reference: publication PMC8037182, “Solvothermal Synthesis of Multiple Dihydropyrimidinones at a Time as Inhibitors of Eg5” (Molecules, 2021)
